Assays:
endoglucanase 44A = test: Enzymatic hydrolysis on the PTFE-like ACG surface with endoglucanase 44A, MS-TOF assay; type: biochemical, Clostridium thermocellum; details: substrate immobilized on the PTFE-like ACG surface
Experimental: (§1) For each carbohydrate, a specific enzyme was added: (a) is the control run without enzymes, (b) is exoglucanase L3, and (c) is endoglucanase 44A. […]
For comparison and as illustrated according to implementations shown in FIG. 23, substrate 8, 9, and 10 were immobilized on the PTFE-like ACG surface and carried out the cellulase hydrolysis on the surface directly, after the same washing procedures, these slides were subjected to MS-TOF assay. […] The endoglucanase 44A can't accept compound 8 or 9 as a substrate. […] From the above results, the cellotetraose substrate 10 was the best carbohydrate to create array on the PTFE-like ACG surface for the experiments conducted. By using this array, the activity and specificity of unknown cellulase may be examined.
Cellulase was prepared (5 U/mL in 25 mM pH 5.05 NaOAc buffer solution). Substrate was also dissolved in NaOAc buffer solution (25 mM, pH 5.05) to give 0.5 mM substrate solution. Add 50 μL cellulase solution to 50 μL substrate solution onto the glass slide which was loaded in FAST® Frame multi-slide plate to have a 2.5 U/mL cellulase solution with 0.25 mM substrate. The well of the plate was sealed and the whole assembly was incubated in 37° C. for 18 hours. Put the slide in dry box to remove the water, and then use high vacuum to remove trace water. 100 uL water was used to rinse each well of the FAST® Frame multi-slide plate to solve and remove the salt of the buffer solution. Remove any residual water on the plate by high vacuum and then analyzed the slide by MALDI-TOF Ultra-Flex II.
(§2) The genomic DNA of Sulfolobus solfataricus (ATCC 35092) and Clostridium thermocellum (ATCC 27405) were obtained from the ATCC biological resource center. The Sso7d (NCBI accession number: AAK42090) gene fragment was amplified directly from the Sulfolobus solfataricus genome by polymerase chain reaction (PCR) with forward 5′ […] 3′ (SEQ ID NO: 1) and reverse 5′ […] 3′ (SEQ ID NO: 2) primers. […]

exoglucanase L3 = test: Enzymatic hydrolysis in solution with purified exoglucanase L3, MS-TOF assay; type: biochemical, Clostridium thermocellum; details: reaction in solution
Experimental: To verify, the exoglucanases (L3) and endoglucanase (44A) were prepared according methods well known in the literature with minor modifications. First, enzymatic hydrolysis reactions were conducted in solution with the purified enzymes using substrates 8, 9 and 10. At the completion of the reaction, the solution mixtures were transferred to the PTFE-like ACG slide, and prepared by using the same washing procedures before being subjected to MS-TOF assay.
as §1
Cellulase was prepared (5 U/mL in 25 mM pH 5.05 NaOAc buffer solution). Substrate was also dissolved in NaOAc buffer solution (25 mM, pH 5.05) to give 0.5 mM substrate solution. Add 100 uL cellulase solution to 100 uL substrate solution in eppendorf to have a 2.5 U/mL cellulase solution with 0.25 mM substrate. This solution was incubated in 37° C. for 18 hours. Add 100 μL incubated solution onto the slide loaded in FAST® Frame. Put the slide in dry box to remove the water, and then use high vacuum to remove trace water. 100 μL water was used to rinse each well of the FAST® Frame multi-slide plate to solve and remove the salt of the buffer solution. Remove any residual water on the plate by high vacuum and then analyzed the slide by MALDI-TOF Ultra-Flex II.
as §2, with “primers. The PCR product encoding Sso7d was digested with NdeI and BamHI and subsequently cloned into expression vector pET-28a (Novagen) to generate pET-28-Sso7d.” for “primers.”

Row | SMILES | Cleavage of the substrate by endoglucanase 44A (in words) (endoglucanase 44A) | Cleavage of the substrate by exoglucanase L3 (in words) (exoglucanase L3)
1 | O=C(NCCCCCO[C@@H]1O[C@H](CO)[C@@H](O[C@@H]2O[C@H](CO)[C@@H](O)[C@H](O)[C@H]2O)[C@H](O)[C@H]1O)OCCCC(F)(F)C(F)(F)C(F)(F)C(F)(F)C(F)(F)C(F)(F)C(F)(F)C(F)(F)F [Compound 8, [(4,4,5,5,6,6,7,7,8,8,9,9,10,10,11,11,12,12,12-nonadecafluorododecoxycarbonyl-amino)pentyl] ß-D-cellobioside] | can't accept | slowly
2 | O=C(NCCCCCO[C@@H]1O[C@H](CO)[C@@H](O[C@@H]2O[C@H](CO)[C@@H](O[C@@H]3O[C@H](CO)[C@@H](O)[C@H](O)[C@H]3O)[C@H](O)[C@H]2O)[C@H](O)[C@H]1O)OCCCC(F)(F)C(F)(F)C(F)(F)C(F)(F)C(F)(F)C(F)(F)C(F)(F)C(F)(F)C(F)(F)F [Compound 9, [(4,4,5,5,6,6,7,7,8,8,9,9,10,10,11,11,12,12,12-nonadecafluorododecoxycarbonyl-amino)pentyl] ß-D-glucopyranosyl-(1→4)-ß-D-glucopyranosyl-(1→4)- -ß-D-glucopyranoside] | can't accept | quickly

Source: US10274488B2, “Glycan arrays on PTFE-like aluminum coated glass slides and related methods” (Academia Sinica, priority 2008, dated 2019)
